# According to patent US5952189A (priority 1997, dated 1999):
# “Also recorded” adds a separate entry of the source. Like-named read-outs stand apart in the source and are kept apart here. Starred links: 1 amine or outer side, 2 acyl side, 3 side chain; linkers in the order of their positions; H or OH if unused. Positions of bridges follow the written chain, without caps; N, C: chain ends. Non-standard residues stand in square brackets, D forms with d. Residues, ends and D or L forms follow the SMILES beside them. Chains are numbered I, II in the order given. Actinocin(9to1) = Cc1c2oc3c(C)ccc(C(=O)[*:1])c3nc-2c(C(=O)[*:2])c(N)c1=O; NMeV = CN[C@H](C(=O)O)C(C)C; Sar = CNCC(=O)O
# B1: leukocyte elastase: human leukocyte elastase obtained from Calbiochem (protein, UniProt P08246 30-267, looked up)
# Neutrophil elastase: IVGGRRARPHAWPFMVSLQLRGGHFCGATLIAPNFVMSAAHCVANVNVRAVRVVLGAHNLSRREPTRQVFAVQRIFENGYDPVNLLNDIVILQLNGSATINANVQVAQLPAQGRRLGNGVQCLAMGWGLLGRNRGIASVLQELNVTVVTSLCRRSNVCTLVRGRQAGVCFGDSGSPLVCNGLIHGIASFVRGGCASGLYPDAFAPVAQFVNWIDSIIQRSEDNPCPHPRDPDPASRTH
# Key:
# U937 cells [1] = assay: cells; type: cell-based, human
# BT-20 = type: cell-based, human; conditions: for % DNA fragmentation: BT-20, inhibitor 100 μM, UV 0.5 J/cm^2, 8 h, no inhibitor 44 ± 3.6; for Effect on UV-induced DNA fragmentation: summary of Table 2 (BT-20, 3T3, HL-60)
# 3T3 = assay: Inhibition of UV-induced DNA fragmentation in 3T3 cells; type: cell-based, murine; conditions: inhibitor 100 μM, UV 0.5 J/cm^2, 8 h, no inhibitor 38 ± 1.9
# Protocol: To determine if these findings were unique to U937 or if other cell lines also require protease activity to undergo apoptosis, the effects of several inhibitors on apoptosis induced by UV light in the human mammary carcinoma, BT-20, the murine fibroblast cell line, 3T3, and the human myeloid leukemia, HL-60 were tested. For the BT-20 and 3T3 cells, target cells were pretreated for one hour (with or without inhibitors as indicated in the table) and exposed to UV light at 0.5 J/cm^2 and then incubated for eight hours prior to assessing DNA fragmentation. HL-60 cells were pretreated for one hour (with or without inhibitors as indicated in the table) and exposed to UV at 0.2 J/cm^2 and then incubated for two hours prior to assessing DNA fragmentation.
# DNA fragmentation assays were carried out according to the protocol of Wright S. C., et al. (1,992) J. Cell. Biochem. 48, 344-355. Target cells were labeled with ^3 H-thymidine and plated in triplicate in flat bottom microtiter plates. Cells were incubated for the indicated length of time for each experiment in the presence of TNF or various inhibitors. In some experiments, cells were treated with UV light at 245 nm using a UV Crosslinker (Fisher Scientific). Assays were harvested and counted on a Packard matrix 96 beta counter. Percent DNA fragmentation was calculated as for the nuclear assay described in Example 3. In assays to test the effects of various inhibitors, the pH of extra wells containing assay buffer, target cells, and each inhibitor was always checked at the beginning and end of each assay to assure that the pH remained at 7.5.
# U937 cells [2] = conditions: cited from earlier work
# isolated U937 nuclei [3] = assay: DNA fragmentation assay using isolated U937 nuclei; type: cell-based, human; conditions: concentrations as high as 0.1 mg/ml (FIG. 6A)
# Protocol: U937 cells were labeled with ^3 H-thymidine by culturing overnight with isotope at 0.5 μCi/ml. The cells were pelleted, washed once, and the cytoplasmic membrane lysed by resuspending the cells in assay buffer (50 mM Tris, 250 mM sucrose 10 mM MgSO4, pH 7.5) plus 0.02% NP-40. Nuclei were then pelleted and resuspended in assay buffer at 1×10^6 /ml. The assay was set up in triplicate in flat bottom microtiter plates under sterile conditions. Nuclei (0.05 ml) were mixed with 0.05 ml of sample diluted in 50 mM Tris pH 7.5 or buffer alone to determine total counts. Plates were incubated for 5 h at 37° C. and then harvested by the addition of 0.1 ml of harvesting buffer (10 mM Tris, 10 mM EDTA, 0.3% Triton X-100, pH 7.5). Plates were harvested by filtration onto glass fiber paper and counted on a Packard Matrix 96 beta counter. Percent DNA fragmentation was calculated as follows: […]
# [4] = test system: TNF-induced hepatocyte apoptosis; assay: TNF-induced hepatotoxicity in mice (serum transaminases); type: in vivo, Balb/c mice
# Protocol: In this example the concept that a protease inhibitor such as DK120 may attenuate inappropriate apoptosis that causes tissue damage in systemic inflammatory response syndrome (SIRS) was tested. TNF-induced hepatocyte apoptosis in mice was performed as described by Leist et al. ((1995) J. Immunol. 154:1778-1786). Briefly, Balb/c mice were injected ip with […] murine TNF combined with […] Actinomycin D/mouse. Twelve h later, mice were anesthetized and bled from the heart to measure serum transaminase levels, which are standard clinically used indicators of liver damage. Mice that were treated with protease inhibitors were injected ip with these compounds 30 min. prior to TNF. Alanine aminotransferase (ALT) and aspartate aminotransferase (AST) were assayed using a commercially available kit (Sigma). […] However, treatment with DK120 caused a doss-dependent decrease in serum transaminase levels. […] However, a drug that nonspecifically blocks all apoptotic pathways that normally function to maintain homeostasis may not be clinically desirable. Subsequent studies were performed to determine if DK120 could also suppress hepatocyte apoptosis in response to a different stimulus.
# ^1 Mice (2 for each treatment) were injected ip +/- DK120 30 min prio
# to TNF and Actinomycin D. Twelve h later serum transaminase levels were
# (§1) To further explore the specificity of DK120 attenuation of TNF-induced hepatotoxicity, several compounds were tested that were found previously not to inhibit apoptotic protease proteolytic activity as measured against a synthetic substrate (data not shown). […] Therefore, the protection mediated by DK120 is not a property of any boron-containing molecule.
# ^1 Mice (3 for each treatment) were injected ip +/- the inhibitors 30
# min prior to TNF and Actinomycin D. Twelve h later serum transaminase
# isolated U937 nuclei [5] = assay: Gel electrophoresis of DNA fragmentation in isolated U937 nuclei; type: cell-based, human
# apoptotic protease = assay: Inhibition of apoptotic protease proteolytic activity against a synthetic substrate; type: biochemical, human; conditions: data not shown
# Protocol: Proteolytic activity was assayed using synthetic substrates selective for different known proteases. All assays were set up by adding 0.02 ml of sample (or known enzyme as a positive control) plus 0.18 ml of appropriate substrate dissolved in PBS PH 7.5 in triplicate in flat bottom microtiter plates, incubated for the indicated length of time at room temperature, and the OD at 405 nm measured using a plate reader.
# Elastase-like activity was measured using N-methoxysuccinyl-ala-ala-pro-valp-nitroanilide (SEQ ID NO: 3) (MAAPV) at 0.25 mM as a substrate. For convenience and maximum sensitivity, these assays were routinely incubated 20 h to monitor protease purification. Under these conditions, the elastase dose response was linear up to a concentration of 6.0 μg/ml (OD of 1.0), see FIG. 3C. […] In order to quantitate the activity of the purified protease, identical assays were set up but kinetic readings of OD were taken every hour from 1-6 h. One unit of enzyme was calculated as the amount of enzyme that hydrolyzes 1.0 nmol substrate/h.
# as §1
# [6] = test system: LPS-induced hepatotoxicity
# [7] = Chymotrypsin-like activity on SAAPP substrate; type: biochemical; conditions: eluted from DK120 column
# Protocol: To purify the apoptotic protease, a DK120 affinity column was prepared.
# To measure chymotrypsin-like activity, N-succinyl-ala-ala-pro-phe p-nitroanilide (SEQ ID NO: 2) (SAAPP) at 0.1 mM was used as the substrate. Trypsin-like activity was measured using N-α-benzyloxycarbonyl-L-lysine thiobenzyl ester (BLT) at 0.2 mM plus 0.11 mM […].
# [8] = Binding to DK120 affinity column; conditions: eluted with 0.1 M HCl
molecule,measurement,setting,value
CC(C)C[C@H](NC(=O)[C@@H](O)[C@H](N)Cc1ccccc1)C(=O)O [Bestatin],Effect on DNA fragmentation induced by TNF or UV light,"U937 cells [1]; U937 cells, result in words",inactive
"O=S(=O)(F)Cc1ccccc1 [PMSF, phenylmethylsulfonylfluoride]",Effect on DNA fragmentation induced by TNF or UV light,U937 cells [1],not inhibited; also recorded: without effect
same,"Inactive Compounds, Highest Concentration Tested (highest nontoxic concentration, inactive)",U937 cells [1],100 µM
CC(=O)N[C@@H](CC(C)C)C(=O)N[C@@H](CC(C)C)C(=O)N[C@H](C=O)CCCNC(=N)N [Leupeptin],Effect on DNA fragmentation induced by TNF or UV light,"U937 cells [1]; U937 cells, result in words",without effect
same,% DNA fragmentation,BT-20,42 ± 5.6%
same,Effect on UV-induced DNA fragmentation,BT-20,inactive
same,% DNA fragmentation,3T3,36 ± 2.6%
NC(=O)c1cccc(N)c1 [3-aminobenzamide],Effect on apoptosis,U937 cells [2],blocked
N=C(N)c1ccccc1 [Benzamidine],Effect on DNA fragmentation induced by TNF or UV light,"U937 cells [1]; U937 cells, result in words",without effect
trypsin,DNA fragmentation in isolated nuclei by commercial proteases,isolated U937 nuclei [3],completely inactive
"Cc1ccc(S(=O)(=O)N[C@@H](CCCCN)C(=O)CCl)cc1 [TLCK, N-α-p-tosyl-L-lysine-chloromethyl ketone]",Effect on DNA fragmentation induced by TNF or UV light,"U937 cells [1]; U937 cells, result in words",without effect
"Cc1c2oc3c(C)ccc(C(=O)N[C@@H]4C(=O)N[C@H](C(C)C)C(=O)N5CCC[C@H]5C(=O)N(C)CC(=O)N(C)[C@@H](C(C)C)C(=O)O[C@@H]4C)c3nc-2c(C(=O)N[C@@H]2C(=O)N[C@H](C(C)C)C(=O)N3CCC[C@H]3C(=O)N(C)CC(=O)N(C)[C@@H](C(C)C)C(=O)O[C@@H]2C)c(N)c1=O [Actinomycin D] (I: T[dV]P[Sar][NMeV] / II: T[dV]P[Sar][NMeV]; ester I:1-I:C, II:1-II:C; linker I:N-II:N via Actinocin(9to1))",ALT,"[4]; Table 7, Actinomycin D 15 mg alone, 12 h, none 39",70 U/ml
same,AST,"[4]; Table 7, Actinomycin D 15 mg alone, 12 h, none 51",47 U/ml
same,ALT,"[4]; Table 10 Exp. #1, Actinomycin D 15 mg alone, 12 h",71 +/- 8.5 U/ml
same,ALT,"[4]; Table 10 Exp. #2, Actinomycin D 15 mg alone, 12 h",139 +/- 29 U/ml
"CCCCCCCCCCCCCC(=O)O[C@@H]1[C@@H](C)[C@@]2(O)[C@@H](C=C(CO)C[C@]3(O)C(=O)C(C)=C[C@@H]23)[C@@H]2C(C)(C)[C@]12OC(C)=O [Phorbol myristate acetate (PMA), Phorbol myristate acetate]",Effect on apoptosis,U937 cells [2],inhibits apoptosis induced by TNF or UV light
"COC(=O)[C@H](CCCNC(=N)N)NS(=O)(=O)c1ccc(C)cc1 [TAME, p-toluene-sulfonyl-L-arginine methyl ester]",Effect on DNA fragmentation induced by TNF or UV light,"U937 cells [1]; U937 cells, result in words",without effect
CCN1C(=O)C=CC1=O [N-ethylmaleimide],Effect on DNA fragmentation induced by TNF or UV light,"U937 cells [1]; U937 cells, result in words",inactive
"α1-anti-protease: α1-anti-protease, protease inhibitor","DNA of nuclei treated with compound alone, gel","isolated U937 nuclei [5]; FIG. 5, lane 4",remained in high molecular weight form
same,"Effect on protease-induced DNA fragmentation, gel","isolated U937 nuclei [5]; protease pretreated 1 hr (FIG. 5, lane 3)",DNA fragmentation was abolished
Aprotinin,Protection from TNF-induced hepatotoxicity,"[4]; Table 10, 10 mg/kg",neither of these inhibitors had much effect on ALT levels
same,ALT,"[4]; mouse, in vivo",346 +/- 14 U/ml
same,Inhibition of apoptotic protease proteolytic activity,apoptotic protease,do not inhibit apoptotic protease
"CC(=O)NC(Cc1ccccc1)C(=O)Oc1ccc2ccccc2c1 (racemic) [APNE, N-acetyl-DL-Phenylalanine β-naphthyl ester]",IC50,"U937 cells [1]; Homo sapiens, U-937, read-out: IC50 (Active Concentration), TNF and UV-light induced apoptosis",40 µM
same,Effect on DNA fragmentation induced by TNF or UV light,"U937 cells [1]; U937 cells, result in words",blocked DNA fragmentation
CC(C)CC(NC(=O)C1OC1C(=O)O)C(=O)NCCCCN=C(N)N (centres unmarked) [E64],Effect on DNA fragmentation induced by TNF or UV light,"U937 cells [1]; U937 cells, result in words",inactive
same,% DNA fragmentation,BT-20,41 ± 5.6%
same,Effect on UV-induced DNA fragmentation,BT-20,inactive
same,% DNA fragmentation,3T3,42 ± 2.7%
CC(C)C[C@H](NC(=O)[C@@H](NC(=O)N[C@@H](Cc1ccccc1)C(=O)O)[C@@H]1CCN=C(N)N1)C(=O)N[C@H](C=O)Cc1ccccc1 [Chymostatin],Effect on DNA fragmentation induced by TNF or UV light,"U937 cells [1]; U937 cells, result in words",without effect
"N[C@H]1C(O)O[C@H](CO)[C@H](O)[C@@H]1O (some centres unmarked) [Gln, galactosamine]",ALT,"[6]; Gln 15 mg alone, survivors",137 +/- 33 U/ml
same,AST,"[6]; Gln 15 mg alone, survivors",67 +/- 4.6 U/ml
same,% Mortality,"[6]; mouse, in vivo",0%
chymotrypsin,DNA fragmentation in isolated nuclei by commercial proteases,isolated U937 nuclei [3],completely inactive
same,Protease activity on SAAPP substrate after elution and neutralization,[7],high levels of protease activity
same,Binding to DK120 affinity matrix,[8],efficiently bound
B1,DNA fragmentation in isolated nuclei by commercial proteases,isolated U937 nuclei [3],cannot induce DNA fragmentation in U937 nuclei
same,DNA fragmentation in isolated nuclei by commercial proteases,isolated U937 nuclei [3]; listed as elastase,completely inactive
